Data taken from patent US7846960B2, “FXR agonists” (Eli Lilly and Company, priority 2006, dated 2010).

Legend:
FXR = target: T1, FXR (Homo sapiens, UniProt Q96RI1); assay: bDNA Assay for SHP mRNA; format: cell-based; settings: human hepatocarcinoma Huh7 cells, 24 hours treatment, SHP mRNA by bDNA; read-out: SHP gene activation EC50
T1 construct: Plate human hepatocarcinoma Huh7 cells grown in DMEM:F12 with 10% fetal bovine serum; endogenous in cells; host or cells: Huh7 human hepatocarcinoma cells
T1 sequence (Q96RI1 1-486): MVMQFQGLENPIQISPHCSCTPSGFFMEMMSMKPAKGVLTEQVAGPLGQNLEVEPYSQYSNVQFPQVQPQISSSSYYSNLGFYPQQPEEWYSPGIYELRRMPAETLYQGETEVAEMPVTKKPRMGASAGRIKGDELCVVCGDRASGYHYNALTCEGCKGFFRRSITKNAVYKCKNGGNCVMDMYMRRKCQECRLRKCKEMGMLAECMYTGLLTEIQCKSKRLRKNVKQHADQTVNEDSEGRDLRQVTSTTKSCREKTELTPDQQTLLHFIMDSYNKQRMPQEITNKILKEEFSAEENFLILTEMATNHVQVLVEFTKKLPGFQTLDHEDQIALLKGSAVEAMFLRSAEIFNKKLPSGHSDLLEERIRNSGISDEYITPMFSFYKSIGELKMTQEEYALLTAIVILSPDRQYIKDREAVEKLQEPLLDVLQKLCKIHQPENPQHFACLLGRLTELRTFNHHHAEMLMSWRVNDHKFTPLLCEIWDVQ
Text: FXR is a key, direct transcriptional regulator of the Small Heterodimer Partner (SHP) gene, accession number NM_021969, an atypical member of the nuclear receptor family that lacks a DNA-binding domain. SHP interacts with several conventional and orphan members of the nuclear receptor superfamily, including retinoid receptors and thyroid hormone receptor. SHP inhibits transactivation potential of superfamily members with which it interacts. […] Since FXR directly transactivates transcription of the SHP gene, the SHP branched DNA method (bDNA) quantitates FXR activation by ligands. Thus, increased expression of SHP mRNA, as determined by increase bDNA signal, signifies engagement of FXR by an agonist.
Plate human hepatocarcinoma Huh7 cells grown in DMEM:F12 with 10% fetal bovine serum and in 96 well plate at the density of 1×10^5/well. After overnight incubation, treat the cells with test compounds at various concentrations for 24 hours. […]
Incubate the lysis buffer for 15-minute at 37° C., then transfer 100 μL of the lysate from each well to the corresponding wells of the capture plate. […] Label the mRNA to be measured by addition of 100 μL QuantiGene® label probe working buffer then incubate for 60 minutes at 46° C. […] Incubate the plates at 37° C. for up to 30 minutes and then read on a luminometer (Packard Fusion Alpha, 1 second detection) to detect the luminescent signal. […]

LDLR−/− mice = assay: LDLR−/− Serum Lipid Modulation; format: in vivo; settings: male LDLR−/− mice on western diet, 10 mg/kg, once daily oral gavage for seven days
Protocol: Acclimate animals for two weeks prior to study initiation. House mice individually in polycarbonate cages with filter tops, and maintain mice on a 12:12 hour light-dark cycle (lights on at 6:00 AM) at 21° C. Provide deionized water ad libitum and maintain for two weeks on ‘western diet’ TD 88137 Diet (42% fat, 0.15% cholesterol, Harlan Teklad) ad libitum. Optimize groups of five ten-week-old male LDLR−/− mice based on serum triglyceride and cholesterol levels. Dose groups once daily by oral gavage with various doses of the test compound dissolved in 5% EtOH/5% Solutol in NaCMC (1%), SLS (0.5%), antifoam (0.05%), Povidone (0.085%) for seven days. At the end of the seven-day dosing period, collect blood by cardiac puncture after asphyxiation in a CO2 chamber. […] Lipoproteins were separated by fast protein liquid chromatography, and cholesterol was quantitated with an in-line detection system. […] The colored product produced in the presence of cholesterol was monitored in the flow stream at 505 nm, and the analog voltage from the monitor was converted to a digital signal for collection and analysis. The change in voltage corresponding to change in cholesterol concentration was plotted vs. time, and the area under the curve corresponding to the elution of VLDL-C and HDL-C was calculated using Turbochrome (version 4.12F12) software from PerkinElmer (Norwalk, Conn.).

Compound: CCN(Cc1cccc(C(=O)O)c1)c1ccc(OCc2c(C(C)C)cnn2-c2c(Cl)cccc2Cl)cc1C [Example 90, 3-[({4-[2-(2,6-Dichloro-phenyl)-4-isopropyl-2H-pyrazol-3-ylmethoxy]-2-methyl-phenyl}-ethyl-amino)-methyl]-benzoic acid]
- EC50 (FXR): ~53 nM

Compound: Cc1cc(CN(C)c2ccc(OCc3c(C(C)C)cnn3-c3c(Cl)cccc3Cl)cc2C)cc(C(=O)O)c1 [Example 199, 3-[({4-[2-(2,6-Dichloro-phenyl)-4-isopropyl-2H-pyrazol-3-ylmethoxy]-2-methyl-phenyl}-methyl-amino)-methyl]-5-methyl-benzoic acid]
- lowering of total cholesterol (LDLR−/− mice): 60%
- lowering of triglycerides (LDLR−/− mice): 63%
